Laboratory results: publication PMC9200803, “Design, synthesis, and biological evaluation of tetrahydroquinolinones and tetrahydroquinolines with anticancer activity” (Scientific Reports, 2022)

Tests used:
HCT-116 cells [1] = assay: Acridine orange staining of acidic vesicular organelles; format: cell-based, human; settings: HCT-116, p < 0.01
From the text: Then, to elucidate whether compound 20d can act as an autophagy modulator, we stained cells with acridine orange (AO), a lysotropic agent. AO is a weak base that can permeate the cell membrane in an uncharged state emitting green fluorescence. After protonation, AO forms aggregates in acidic vesicular organelles (AVOs), emitting red fluorescence. […] One of the hallmarks of autophagy is the conjugation of LC3-I with phosphatidylethanolamine, followed by its conversion to autophagosome-associated form LC3-II[39]. Taking this into account, we evaluated the expression of LC3I/II in colon cancer cells after exposure to 20d. Furthermore, we studied the expression of LAMP-1, a well-known lysosomal marker. […] This observation was also confirmed by increased punctate cytosolic LC3 fluorescence intensity when HCT-116 cells were assessed by confocal microscopy (Fig. 8e,g). […] It has been shown that multiple signaling pathways are involved in the modulation of autophagy, including the PI3K/AKT/mTOR pathway, which is especially involved in the stage of autophagosome elongation[41],[42]. In this study, we investigated whether 20d-induced autophagy in HCT-116 cells is related to PI3K/AKT/mTOR signaling. […] This proves that 20d induced autophagy cell death in HCT-116 cells by interfering with the PI3K/AKT/mTOR signaling pathway.

HCT-116 cells [2] = assay: Wound healing assay; format: cell-based, human; settings: HCT-116, 10 and 20 µM, 30 and 36 h of treatment
Description: A decrease in cell–cell adhesion correlates with tumor invasion and metastasis. Migration leads to spreading and metastasis of cancer cells and is thus associated with poor prognosis of many types of cancer. Moreover, studies indicate that metastasis is the major cause of death in patients with colorectal cancer (CRC)[58]. To investigate the effect of 20d on migration, HCT-116 cells were cultured and investigated by wound healing assay. The percentage of migration was monitored over time by capturing a series of images after every 6 h up to 36 h of treatment.
The antimigratory properties of 20d were investigated in HCT-116 cell line using wound healing assay. Briefly, cells were seeded and allowed to attach to the Ibidi-silicone insert on a cover glass-bottom 24-well plate for live-cell imaging. Next, the inserts were dislodged, and subsequently, cells were washed with a fresh medium and incubated with various concentrations of 20d in an imaging chamber (cellVivo incubation system, Olympus). For monitoring the migration of cells by live-cell microscopy with time-lapse photography, images were captured every 15 min for 36 h under 10× magnification using a fluorescence microscope (IX83 Inverted Microscope, Olympus) equipped with an XC50 phase-contrast digital color camera (Olympus). The distance between gaps was measured using ImageJ software.

A-549 cells = assay: MTT cell viability assay, A-549; format: cell-based, human
Description: To evaluate the effects of the newly synthesized tetrahydroquinolin-2(1H)-one derivatives on cell viability, we treated human colon cancer cells HCT-116, human breast cancer cells MCF-7, and human non-small cell lung cancer cells A-549 with different concentrations of the compounds for 72 h. After incubation, the MTT (3-(4,5-dimethylthiazol-2-yl)-2,5-diphenyltetrazolium bromide) assay was performed and the cytotoxic potency of compounds (expressed in IC50) on the cells was determined in comparison to control cells treated with 1% of dimethyl sulfoxide (DMSO) (Table 1). […] We also compared the activity of 20d and 19b to the reference control drug Cisplatin, which is widely used in chemotherapy.
A-549 (CCL-185) and MCF-7 ([…]) cells were cultured in RPMI-1640 medium, while HCT-116 (CVCL-427), (hMLH1)-deficient (MMR^–) and hMLH1-proficient (MMR^+) RKO cells were cultured in McCoy’s 5A medium. The culture media were supplemented with 10% fetal bovine serum, 2 mM L-glutamine, and antibiotics (penicillin 62.6 µg/ml and streptomycin 40 µg/ml). Cultivation of cell lines was carried out at 37 °C under a humidified atmosphere containing 5% CO2, and the cultures were routinely screened for Mycoplasma contamination. A-549, MCF-7, and HCT-116 cells were obtained from American Type Culture Collection (ATCC), while RKO colon carcinoma cells were a kind gift of Dr Timothy Kinsella (Brown University, USA).
The viability of cells was determined in response to the newly synthesized compounds using the MTT (Sigma-Aldrich) assay. Briefly, cells were seeded into 96-well plates and allowed to attach overnight. Then, cells were exposed to various concentrations of compounds for 24, 48 or 72 h. Negative controls were treated with the same amount of DMSO solvent (1%). After treatment, the MTT solution (0.4 mg/ml) was added to each well and allowed to react with cells for 2–3 h at 37 °C. Next, the medium was removed, the formazan product formed was dissolved in 100 μl of DMSO, and the absorbance was determined at 540 nm using an ASYS UVM340 microplate reader (Biochrom Ltd.). The IC50 value, which represents the concentration of the compound required to inhibit cell growth by 50% compared to vehicle, was calculated using GraphPad Prism 8 software based on the curves plotting survival against dose averaged from at least three independent experiments.

HEK293 cells = assay: MTT cell viability assay, HEK293; format: cell-based, human; settings: Homo sapiens, HEK293, IC50 ± SD
[3] = test system: hMLH1-proficient (MMR+) RKO cells; assay: MTT cell viability assay, hMLH1-proficient (MMR+) RKO; format: cell-based; settings: Homo sapiens, mean ± SD
From the text: (§1) We further attempted to determine whether 20d-induced cancer cell death was related to the induction of ROS production in HCT-116 cells. For this purpose, we pretreated cells with N-acetyl-L-cysteine (NAC), which is a commonly used antioxidant and ROS scavenger. […] HCT-116 cell line has high-frequency microsatellite instability, which is associated with deficient DNA mismatch repair (MMR)[31]. The MMR system corrects DNA-mismatched and insertion–deletion loop bases generated during DNA replication. One of the key proteins involved in the MMR pathway is MLH1, which is mutated or epigenetically silenced in many MMR-deficient (MMR^–) cells, such as HCT-116[33]. To further determine the selectivity for MMR deficiency, we analyzed the cell viability of human MutL homologue 1 (hMLH1)-deficient (MMR^–) and hMLH1-proficient (MMR^+) RKO human colon carcinoma cell lines. The latter was established by transfecting hMLH1 cDNA into MMR^− RKO cell line[34]. In MMR^– RKO cells, the hMLH1 gene promoter was silenced transcriptionally by hypermethylation. […]
(§2) The viability of cells was determined in response to the newly synthesized compounds using the MTT (Sigma-Aldrich) assay. […] Next, the medium was removed, the formazan product formed was dissolved in 100 μl of DMSO, and the absorbance was determined at 540 nm using an ASYS UVM340 microplate reader (Biochrom Ltd.). […]

[4] = test system: hMLH1-deficient (MMR–) RKO cells; assay: MTT cell viability assay, hMLH1-deficient (MMR–) RKO; format: cell-based, human
From the text: as §1, §2

O=C(Nc1cccc(F)c1)OC1CCCc2c(-c3ccccc3)cc(=O)[nH]c21 (centres unmarked) [Compound 20d, (2-oxo-4-phenyl-5,6,7,8-tetrahydroquinolin-8-yl) N-(3-fluorophenyl)carbamate]
increase in red fluorescence (AVOs) in comparison to vehicle (HCT-116 cells [1]): 1.9 fold
inhibition of migration (HCT-116 cells [2]): 30–50%
fold lower concentration than Cisplatin suppressing 50% of cell viability (A-549 cells; A-549): 5 fold
IC50 (A-549 cells; Homo sapiens, A549, MTT, 72 h, IC50 ± SD): 12.6 ± 0.54 µM
IC50 (HEK293 cells): > 50 µM
IC50 [3]: 4.78 ± 0.38 µM
IC50 ([4]; Homo sapiens, RKO, mean ± SD): 1.21 ± 0.13 µM
fold higher sensitivity of MMR– RKO vs MMR+ RKO cells ([4]; p < 0.001): 3.95 fold
